Here are results for ten molecules from patent US6720423B2, “Dihydrobenzofuran and dihydrobenzothiophene 2,4-pentadienoic acid derivatives having selective activity for retinoid X (RXR) receptors” (Allergan, Inc., priority 2002, dated 2004).

One assay concerns the target T1, RXRβ (UniProt P28704).
T1 sequence (P28704 1-520): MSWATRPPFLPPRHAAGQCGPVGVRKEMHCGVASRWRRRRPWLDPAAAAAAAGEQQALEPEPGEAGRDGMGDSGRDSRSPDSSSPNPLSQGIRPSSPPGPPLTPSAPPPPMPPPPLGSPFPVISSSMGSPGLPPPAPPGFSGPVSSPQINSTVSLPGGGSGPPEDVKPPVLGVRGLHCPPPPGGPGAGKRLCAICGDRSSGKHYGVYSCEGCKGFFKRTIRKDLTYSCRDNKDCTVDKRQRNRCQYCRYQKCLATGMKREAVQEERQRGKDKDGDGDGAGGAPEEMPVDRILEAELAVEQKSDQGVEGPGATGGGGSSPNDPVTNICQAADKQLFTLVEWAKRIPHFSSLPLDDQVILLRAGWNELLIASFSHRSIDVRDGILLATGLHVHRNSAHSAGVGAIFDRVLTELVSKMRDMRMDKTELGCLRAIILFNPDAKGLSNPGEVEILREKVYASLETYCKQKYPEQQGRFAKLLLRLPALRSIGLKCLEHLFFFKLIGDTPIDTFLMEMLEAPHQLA
The assay is described as follows: receptor transactivation assay, RXRβ. The format is cell-based. Also on record: RXR Trans; other: RXRβ; first entry of cell. The following applies: for EC50: first entry of cell, read-out: RXR Trans. EC50 (nM) β; for RXR Trans. β, number in parentheses after EC50: parenthesised number, not defined in the patent. From the text:
(§1) A holoreceptor transactivation assay and a ligand binding assay which measure the antagonist/agonist like activity of the compounds of the invention, or their ability to bind to the several retinoid receptor subtypes, respectively, are described in published PCT Application No. WO WO93/11755 (particularly on pages 30-33 and 37-41) published on Jun. 24, 1993, the specification of which is also incorporated herein by reference. A detailed experimental procedure for holoreceptor transactivations has been described by Heyman et al. Cell 68, 397-406, (1992); Allegretto et al. J. Biol. Chem. 268, 26625-26633, and Mangelsdorf et al. The Retinoids: Biology, Chemistry and Medicine, pp 319-349, Raven Press Ltd., New York, which are expressly incorporated herein by reference. The results obtained in this assay are expressed in EC50 numbers, as they are also in the chimeric receptor transactivation assay. The results of ligand binding assay are expressed in Kd numbers. (See Cheng et al. Biochemical Pharmacology Vol. 22 pp 3099-3108, expressly incorporated herein by reference.)

Another assay has as its target T2, RXRγ (UniProt P28705).
T2 sequence (P28705 1-463): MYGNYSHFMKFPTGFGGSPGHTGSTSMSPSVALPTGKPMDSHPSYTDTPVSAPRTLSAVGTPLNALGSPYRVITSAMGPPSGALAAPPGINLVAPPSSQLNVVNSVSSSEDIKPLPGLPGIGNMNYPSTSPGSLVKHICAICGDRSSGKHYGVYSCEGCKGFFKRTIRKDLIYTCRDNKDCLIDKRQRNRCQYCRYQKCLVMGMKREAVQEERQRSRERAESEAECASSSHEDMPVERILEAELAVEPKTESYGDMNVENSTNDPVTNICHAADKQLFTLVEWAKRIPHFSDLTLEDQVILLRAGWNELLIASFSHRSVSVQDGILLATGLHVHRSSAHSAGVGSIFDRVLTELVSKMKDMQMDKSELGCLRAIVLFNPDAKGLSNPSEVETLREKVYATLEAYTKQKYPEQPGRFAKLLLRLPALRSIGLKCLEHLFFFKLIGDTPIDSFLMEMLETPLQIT
In words: ligand binding assay, RXRγ. Details: other: RXRγ; last entry of cell. The following applies: last entry of cell, read-out: RXR Bind Ki (nM) γ.
Excerpt: as §1

The target of assay [1] is T3, RXRα (Homo sapiens, UniProt P19793).
T3 sequence (P19793 1-462): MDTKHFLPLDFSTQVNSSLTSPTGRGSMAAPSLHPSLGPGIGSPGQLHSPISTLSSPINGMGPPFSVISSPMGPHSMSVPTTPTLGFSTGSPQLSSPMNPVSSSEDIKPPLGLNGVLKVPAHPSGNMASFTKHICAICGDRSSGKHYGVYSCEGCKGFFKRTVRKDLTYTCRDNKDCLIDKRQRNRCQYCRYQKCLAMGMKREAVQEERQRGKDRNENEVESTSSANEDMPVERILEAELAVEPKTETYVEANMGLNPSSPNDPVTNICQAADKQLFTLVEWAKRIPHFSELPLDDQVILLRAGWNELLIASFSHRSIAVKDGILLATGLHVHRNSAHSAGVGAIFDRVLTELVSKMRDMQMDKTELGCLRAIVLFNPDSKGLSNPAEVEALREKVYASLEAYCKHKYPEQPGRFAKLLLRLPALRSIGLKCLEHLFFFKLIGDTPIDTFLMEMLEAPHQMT
The assay is described as follows: ligand binding assay, RXRα. The note with it: last entry of cell, read-out: RXR Bind Ki (nM) α.
Excerpt: as §1

Assay [2] has as its target T4, RXRα (Homo sapiens, UniProt P19793).
T4 construct: the only RXRα plasmid printed
T4 sequence (P19793 227-462 limits assumed): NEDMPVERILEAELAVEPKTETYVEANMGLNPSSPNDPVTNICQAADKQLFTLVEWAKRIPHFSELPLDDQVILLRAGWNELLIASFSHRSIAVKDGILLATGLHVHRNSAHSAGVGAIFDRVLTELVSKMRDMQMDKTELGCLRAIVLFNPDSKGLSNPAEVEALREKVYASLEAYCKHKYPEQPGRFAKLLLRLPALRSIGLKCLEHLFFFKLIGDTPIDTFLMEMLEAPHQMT
The assay is described as follows: receptor transactivation assay, RXRα. The format is cell-based. The note with it: first entry of cell, read-out: RXR Trans. EC50 (nM) α.
Excerpt: as §1

Another assay has as its target T5, RARα (Homo sapiens, UniProt P10276).
T5 sequence (P10276 1-462): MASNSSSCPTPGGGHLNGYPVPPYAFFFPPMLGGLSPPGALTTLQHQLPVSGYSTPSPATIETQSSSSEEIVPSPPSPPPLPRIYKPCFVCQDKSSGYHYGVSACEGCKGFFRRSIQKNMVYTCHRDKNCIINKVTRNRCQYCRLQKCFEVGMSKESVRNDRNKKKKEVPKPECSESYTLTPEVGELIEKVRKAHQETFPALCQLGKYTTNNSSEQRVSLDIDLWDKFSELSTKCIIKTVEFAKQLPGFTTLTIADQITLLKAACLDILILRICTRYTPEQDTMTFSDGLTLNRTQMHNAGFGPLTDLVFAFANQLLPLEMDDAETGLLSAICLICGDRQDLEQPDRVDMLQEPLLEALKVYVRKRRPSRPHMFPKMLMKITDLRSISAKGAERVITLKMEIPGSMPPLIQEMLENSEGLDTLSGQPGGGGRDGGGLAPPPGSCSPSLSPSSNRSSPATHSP
In words: ligand binding assay, RARα. The note with it: second entry of cell, read-out: RAR Bind. Ki (nM) α.
Excerpt: as §1

Where only a bound is given, the exact number is not on record here.

Take `CC(/C=C/[C@@H]1C[C@]1(C)c1cc(CC(C)(C)C)c2c(c1)C(C)(C)CO2)=C\C(=O)O` [Compound 12, 5-{(1S,2S) 2-[7-(2,2-Dimethyl-propyl)-3,3-dimethyl-2,3-dihydro-benzofuran-5-yl]-2-methyl-cyclopropyl}-3-methyl-penta-2E,4E-dienoic Acid]: the EC50 on RXRβ amounted to 1.67 nM; on RXRα [2], 0.246 nM. At RXRβ, the “RXR Trans. β, number in parentheses after EC50” value (shortened to “RXR Trans. β, number”) was 93. The figures for the Ki on RXRγ, on RXRα [1] and at RARα were 0.7 nM, 0.2 nM and 18000 nM, respectively.
As for `CC(/C=C/[C@@H]1C[C@]1(C)c1cc(-c2ccc(F)cc2)c2c(c1)C(C)(C)CO2)=C\C(=O)O` [Compound 34, (E)-3-((E)-2-{(1S,2S)-2-[7-(4-Fluoro-phenyl)-3,3-dimethyl-2,3-dihydro-benzofuran-5-yl]-2-methyl-cyclopropyl}-vinyl)-but-2-enoic acid], the EC50 came to 4.55 nM on RXRβ and 0.37 nM at RXRα [2]. Further, the “RXR Trans. β, number” value on RXRβ is listed as 93. Besides, the Ki on RXRγ was 1.5 nM; at RXRα [1], 0.5 nM; on RARα, 23000 nM.
As to `CC(/C=C/[C@@H]1C[C@]1(C)c1cc(-c2ccc(C(C)(C)C)cc2)c2c(c1)C(C)(C)CO2)=C\C(=O)O` [Compound 30, 5-{(1S, 2S)-2-[7-(4-tert-Butyl-phenyl)-3,3-dimethyl-2,3-dihydro-benzofuran-5-]-2-methyl-cyclopropyl}-3-methyl-pent-2E,4E-dienoic Acid], the concentration giving a half-maximal response (EC50) on RXRβ was above 1000 nM; at RXRα [2], 1520 nM. Further, the “RXR Trans. β, number” value on RXRβ was determined as 50. Besides, the Ki is 69.9 nM on RXRγ, 129 nM on RXRα [1] and above 10000 nM at RARα.
For `CC(/C=C/[C@@H]1C[C@]1(C)c1cc(C(C)C)c2c(c1)C(C)(C)CO2)=C\C(=O)O` [Compound 8, (6S,7S)-7-[5-(3,3-Dimethyl-7-iso-propyl-2,3-dihydro-benzofuranyl)]-6,7-methano-3-methyl-octa-2E,4E-dienoic Acid], the EC50 came to 0.66 nM on RXRβ and 0.159 nM at RXRα [2]. Also, on RXRβ, the “RXR Trans. β, number” value was 110. The Ki came to 8.6 nM on RXRγ, 1.7 nM on RXRα [1] and 42000 nM at RARα.
Regarding `CC(/C=C/[C@@H]1C[C@]1(C)c1cc(Cc2ccccc2)c2c(c1)C(C)(C)CO2)=C\C(=O)O` [Compound 14, (6S,7S)-7-[5-(7-Benzyl-3,3-dimethyl-2,3-dihydro-benzofuranyl)]-6,7-methano-3-methyl-octa-2E,4E-dienoic Acid], the EC50 came out at 0.515 nM at RXRβ and 0.086 nM on RXRα [2]. In addition, the “RXR Trans. β, number” value on RXRβ was found to be 114. Besides, the Ki on RXRγ was determined as 9.2 nM; on RXRα [1] it was 0.8 nM; at RARα, 8720 nM.
On to `CC(/C=C/[C@@H]1C[C@@H]1c1ccc2c(c1)C(C)(C)CO2)=C\C(=O)O` [Compound 36, (E)-3-{(E)-2-F[(1S,2S)-2-(3,3-Dimethyl-2,3-dihydro-benzofuran-5-yl)-cyclopropyl]-vinyl}-but-2-enoic acid], for which the EC50 was above 1000 nM at RXRβ and 609 nM on RXRα [2]. The Ki at RXRγ was 602 nM; on RXRα [1], 114 nM; at RARα, above 10000 nM.
Consider `CCCCCCc1cc([C@@]2(C)C[C@H]2/C=C/C(C)=C/C(=O)O)cc2c1OCC2(C)C` [Compound 18, (6S,7S)-7-[5-(3,3-Dimethyl-7-hexyl-2,3-dihydro-benzofuranyl)]-6,7-methano-3-methyl-octa-2E,4E-dienoic acid], for which the figures for the EC50 on RXRβ and at RXRα [2] were 2.8 nM and 0.25 nM, respectively. Moreover, the “RXR Trans. β, number” value at RXRβ worked out at 96. Moreover, the Ki on RXRγ stood at 2 nM; on RXRα [1], 1.9 nM; at RARα, 12000 nM.
Take `CC(/C=C/[C@@H]1C[C@]1(C)c1cc(-c2c(C)cccc2C)c2c(c1)C(C)(C)CO2)=C\C(=O)O` [Compound 24, 5-{(1 S 2S)-2-[7-(2,6-Dimethyl-phenyl)-3,3-dimethyl-2,3-dihydro-benzofuran-5-yl]-2-methyl-cyclopropyl}-3-methyl-penta-2E,4E-dienoic acid]: the values for the EC50 on RXRβ and on RXRα [2] were 6.7 nM and 0.52 nM, respectively. Further, the “RXR Trans. β, number” value at RXRβ is on record as 125. The Ki is 4.8 nM at RXRγ, 0.7 nM on RXRα [1] and above 10000 nM on RARα.
`CC(/C=C/[C@@H]1C[C@]1(C)c1cc(CC2CCCCC2)c2c(c1)C(C)(C)CO2)=C\C(=O)O` [Compound 16, (6S,7S)-7-[5-(7-Cyclohexylmethyl-3,3-dimethyl-2,3-dihydro-benzofuranyl)]-6,7-methano-3-methyl-octa-2E,4E-dienoic Acid]: the figures for the EC50 on RXRβ and on RXRα [2] were 1.15 nM and 0.215 nM, respectively. For the same molecule, the “RXR Trans. β, number” value on RXRβ is recorded as 85. Further, the Ki amounted to 1.9 nM at RXRγ, 0.3 nM on RXRα [1] and 8800 nM at RARα.
Take `CCCCCCCc1ccccc1-c1cc([C@@]2(C)C[C@H]2/C=C/C(C)=C/C(=O)O)cc2c1OCC2(C)C` [Compound 28]: the EC50 on RXRβ is above 1000 nM; on RXRα [2], 594 nM. Also, the Ki on RXRα [1] came to 35 nM; at RARα it was 2620 nM.

One may read the EC50 as the concentration at which the effect is half-maximal. Broadly, the Ki is a measure of affinity in units of concentration, obtained from inhibition or displacement.
